Reference: patent US9539301B2, “Melanotropin ligands for skin care” (THE ARIZONA BOARD OF REGENTS ON BEHALF OF THE UNIVERSITY OF …, priority 2011, dated 2017)
Square brackets hold non-standard residues; d marks the D form. Side chains are listed from the residue outwards. Peptide text beside a SMILES is read from it. * marks the point of attachment. Cy5 maleimide = Cy5 dye as its maleimide, reacted with a thiol compound; d2Nal = N[C@H](Cc1ccc2ccccc2c1)C(=O)O; Butanoyl(4-Ph) = O=C(CCCc1ccccc1)*; Butanoyl(4-ethynyl) = C#CCCCC(=O)*; Nle = CCCC[C@H](N)C(=O)O; Mpa = O=C(O)CCS

Key:
[1] = biological target: MC1R (Homo sapiens, UniProt Q01726); assay: Europium time-resolved fluorescence competitive binding assay (Eu-NDP-α-MSH) on HCT116/hMC1R cells; design: host or cells: HCT116; details: for 1R/4R selectivity (values determined): ratio of MC4R Ki to MC1R Ki
Experimental: (§1) HCT116 cells overexpressing hMC1R and HEK293 cells overexpressing hMC4R[23] or hMC5R were used in all studies. […] Cells were maintained under standard conditions (37° C. and 5% CO2) and were grown in Dulbecco's modified Eagle medium (DMEM) supplemented with 10% FBS and 5% penicillin/streptomycin. For HCT116/hMC1R cells, geneticin (G418S, 0.4 mg/mL) was added to the media to ensure proper selection.
Competitive binding assays were performed using HCT116/hMC1R cells and HEK293/hMC4R or hMC5R as previously described, with slight modifications. […] Poly-D-Lysine Coated Plates contain a PDL polymer coating that creates a uniform positive charge at the surface of the plastic, thereby facilitating cell attachment, growth and differentiation. […] Both labeled and non-labeled ligands were diluted in binding media (DMEM, 1 mM 1,10-phenanthroline, 200 mg/L bacitracin, 0.5 mg/L leupeptin, 0.3% BSA). In the case of the triblock polymer micelle solutions, micelles were allowed to equilibrate in solution for a period of 30 min prior to cell addition. Cells were incubated with labeled and non-labeled ligands for 1 hour at 37° C. Following incubation, cells were washed three times with wash buffer (50 mM Tris-HCl, 0.2% BSA, 30 mM NaCl) and 50 µL of enhancement solution (PerkinElmer) was added to each well. Cells were incubated for an additional 30 min at 37° C. prior to reading. […] Competition curves were analyzed with GraphPad Prism software using the sigmoidal dose-response (variable slope) classical equation for nonlinear regression analysis.
Competitive binding assays were also performed using 4-targeted triblock polymers, triblock polymer micelles, as well as untargeted micelles as a control (FIG. 4A-C).
Europium binding assays were conducted as previously published.^33, 40
Time-resolved lanthanide fluorescence competitive binding assays^33, 40 were performed in an effort to optimize ligand loading for maximal avidity. In these assays, increasing concentrations of micelles were measured for their ability to competitively displace Eu-labeled NDP-α-MSH 2. The remaining Eu was then measured using time resolved fluorescence (TRF, see Methods).

[2] = biological target: MC4R (Homo sapiens, UniProt P32245); assay: Europium competitive binding assay on HEK293/hMC4R cells; design: expressed in transfected cells; host or cells: HEK293
Experimental: as §1
Competitive binding assays were performed using HCT116/hMC1R cells and HEK293/hMC4R or hMC5R as previously described, with slight modifications. HCT116/hMC1R cells were plated in black PerkinElmer 96-well plates and HEK293/hMC4R and HEK293/hMC5R cells were plated on SigmaScreen Poly-D-Lysine Coated Plates (SigmaAldrich), all at a density of 10,000-30,000 cells/well. Poly-D-Lysine Coated Plates contain a PDL polymer coating that creates a uniform positive charge at the surface of the plastic, thereby facilitating cell attachment, growth and differentiation. […] Both labeled and non-labeled ligands were diluted in binding media (DMEM, 1 mM 1,10-phenanthroline, 200 mg/L bacitracin, 0.5 mg/L leupeptin, 0.3% BSA). […] Cells were incubated for an additional 30 min at 37° C. prior to reading. […] Competition curves were analyzed with GraphPad Prism software using the sigmoidal dose-response (variable slope) classical equation for nonlinear regression analysis.

[3] = biological target: T1, MC5R (Homo sapiens, UniProt P33032); assay: Europium competitive binding assay on HEK293/hMC5R cells; design: expressed in transfected cells; host or cells: HEK293
Experimental: HCT116 cells overexpressing hMC1R and HEK293 cells overexpressing hMC4R[23] or hMC5R were used in all studies. The parental human colorectal carcinoma cell line, HCT116 (American Type Culture Collection, CCL 247) was also used. Cells were maintained under standard conditions (37° C. and 5% CO2) and were grown in Dulbecco's modified Eagle medium (DMEM) supplemented with 10% FBS and 5% penicillin/streptomycin. For HCT116/hMC1R cells, geneticin (G418S, 0.4 mg/mL) was added to the media to ensure proper selection.
Competitive binding assays were performed using HCT116/hMC1R cells and HEK293/hMC4R or hMC5R as previously described, with slight modifications. HCT116/hMC1R cells were plated in black PerkinElmer 96-well plates and HEK293/hMC4R and HEK293/hMC5R cells were plated on SigmaScreen Poly-D-Lysine Coated Plates (SigmaAldrich), all at a density of 10,000-30,000 cells/well. […] Cells were incubated for an additional 30 min at 37° C. prior to reading. The plates were read on a PerkinElmer VICTOR×4 2030 multilabel reader using the standard Eu TRF measurement (340 nm excitation, […], and emission collection for […] at 615 nm). Competition curves were analyzed with GraphPad Prism software using the sigmoidal dose-response (variable slope) classical equation for nonlinear regression analysis. […]

[4] = biological target: T1, MC5R; details: footnote: value denotes an EC50; read-out: EC50 MC5R (values derived from literature); cited from earlier work
[5] = tested on: A375/MC1R xenograft tumor; assay: Intravital confocal imaging of dorsal skin-fold window chamber tumor xenograft; format: in vivo, SCID mouse; details: for tumor cell internalization of probe: 24 h after injection
Experimental: All procedures were carried out in compliance with the Guide for the Care and Use of Laboratory Animal Resources (1996), National Research Council, and approved by the Institutional Animal Care and Use Committee, University of South Florida. A dorsal skin-fold window chamber was used to study the pharmacokinetics of imaging agent uptake immediately after i.v. injection of the probe. Starting 3 days prior to the surgery, mice were daily administered 1 ml of sterile saline subcutaneously at the planned site of the window in order to loosen connective tissue and create a receiving “pocket”. SCID mice were prepared immediately before surgery; the surgical site was shaved, and then a combination of oxygen and isoflurane was used for anesthesia (animals underwent induction with 3.5% isoflurane and were maintained at 1.5-2.0%). The window chamber method utilizes a titanium steel or plexiglass “saddle” that is sutured to the back of the mouse and holds a flap of dorsal skin vertically away from the mouse's body. A small “window” of skin (approximately 5 mm in diameter) was surgically excised from the retained skin flap of the anesthetized SCID mouse. Tumor constructs were engineered using the tumor droplet method. A375/MC1R or A375 parental melanoma cells were suspended in 2.5 mg/ml of type I collagen (BD Biosciences #354249) and 1×DMEM at a final concentration of 2.5×10^6 cells/ml. Using a 48-well non-tissue culture plate, a 15 µl drop of the tumor cell suspension was polymerized in the center of the well. After brief polymerization (10-15 minutes) at 37° C., a microvessel outer layer was added that completely surrounded the droplet. The microvessel outer layer consisted of 3 mg/ml of type I collagen, 1×DMEM and, 12,000 to 15,000 GFP expressing rat microvessel fragments/ml. After 4-6 days of culture at 37 C, the constructs were then implanted into the “window chamber” by placing them directly onto the exposed subcutaneous fascia. A glass cover was then attached to the center of the “saddle” to cover the fascia and implanted tumor cells. […]

T1 sequence (P33032 whole entry): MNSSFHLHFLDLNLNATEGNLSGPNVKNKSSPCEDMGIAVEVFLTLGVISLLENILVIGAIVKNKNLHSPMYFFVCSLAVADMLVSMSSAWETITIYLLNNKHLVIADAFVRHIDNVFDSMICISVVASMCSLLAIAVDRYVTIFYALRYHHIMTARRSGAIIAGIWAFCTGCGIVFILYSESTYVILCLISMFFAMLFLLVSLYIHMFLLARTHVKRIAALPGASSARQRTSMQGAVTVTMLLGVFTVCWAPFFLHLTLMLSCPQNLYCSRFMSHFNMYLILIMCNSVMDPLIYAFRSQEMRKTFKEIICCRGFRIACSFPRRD
MC1R, sequence (Q01726 whole entry): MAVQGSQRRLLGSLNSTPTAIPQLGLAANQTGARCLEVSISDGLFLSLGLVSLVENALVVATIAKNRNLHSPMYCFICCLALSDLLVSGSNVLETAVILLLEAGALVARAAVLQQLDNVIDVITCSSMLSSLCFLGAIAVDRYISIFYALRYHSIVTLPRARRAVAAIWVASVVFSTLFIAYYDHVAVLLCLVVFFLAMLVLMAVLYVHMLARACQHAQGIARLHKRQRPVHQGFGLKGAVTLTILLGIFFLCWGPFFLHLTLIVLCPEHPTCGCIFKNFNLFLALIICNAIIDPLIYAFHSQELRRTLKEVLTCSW
MC4R, sequence (P32245 whole entry): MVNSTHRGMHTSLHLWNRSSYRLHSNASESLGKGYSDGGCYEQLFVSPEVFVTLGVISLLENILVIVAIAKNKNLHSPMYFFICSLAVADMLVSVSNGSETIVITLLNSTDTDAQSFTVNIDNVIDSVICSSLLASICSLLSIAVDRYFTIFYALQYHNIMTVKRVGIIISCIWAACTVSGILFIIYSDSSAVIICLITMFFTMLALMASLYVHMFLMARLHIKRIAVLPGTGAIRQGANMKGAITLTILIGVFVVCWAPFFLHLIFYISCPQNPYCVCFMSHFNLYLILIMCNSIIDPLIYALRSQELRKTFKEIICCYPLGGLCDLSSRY

Compound: CC(=O)N[C@@H](CCc1ccccc1)C(=O)N[C@@H](Cc1cnc[nH]1)C(=O)N[C@H](Cc1ccccc1)C(=O)N[C@@H](CCCN=C(N)N)C(=O)N[C@@H](Cc1c[nH]c2ccccc12)C(N)=O [Compound 2, Ac-Homophenylalanine-His-DPhe-Arg-Trp-NH2]
- Ki ([1]; HCT116/hMC1R cells, competition with Eu-NDP-α-MSH, read-out: Ki MC1R (values determined)): 1.77 nM

Compound: N=C(N)NCCC[C@H](NC(=O)[C@@H](Cc1ccccc1)NC(=O)[C@H](Cc1c[nH]cn1)NC(=O)C=Cc1ccc(O)cc1)C(=O)N[C@@H](Cc1c[nH]c2ccccc12)C(N)=O [Compound 3, 4-hydroxycinnamoyl-His-DPhe-Arg-Trp-NH2]
- Ki MC1R (values determined) ([1]; HCT116/hMC1R cells, competition with Eu-NDP-α-MSH): no affinity
- Ki MC4R (values determined) [2]: no affinity
- Ki MC5R (values determined) [3]: no affinity

Compound: C#CCCCC(=O)NCCCC[C@H](NC(=O)CNC(=O)[C@H](Cc1c[nH]c2ccccc12)NC(=O)[C@H](CCCNC(=N)N)NC(=O)[C@@H](Cc1ccccc1)NC(=O)[C@H](Cc1c[nH]cn1)NC(=O)CCCc1ccccc1)C(N)=O [Compound 4, 4-phenylbutyry1-His-DPhe-Arg-Trp-Gly-Lys(hex-5-ynoyl)-NH2] ({Butanoyl(4-Ph)}-H[dF]RWGK(Butanoyl(4-ethynyl))-NH2)
- 1R/4R selectivity (values determined) [1]: 1000
- 1R/5R selectivity (values determined) ([1]; ratio of MC5R Ki to MC1R Ki): 200

Compound: CCCC[C@H](NC(=O)[C@@H](NC(=O)[C@@H](N)Cc1ccc(O)cc1)C(C)C)C(=O)NCC(=O)N[C@@H](Cc1cnc[nH]1)C(=O)N[C@H](Cc1ccc2ccccc2c1)C(=O)N[C@@H](CCCN=C(N)N)C(=O)N[C@H](Cc1c[nH]c2ccccc12)C(=O)N[C@@H](CC(=O)O)C(=O)N[C@@H](CCCN=C(N)N)C(=O)N[C@@H](Cc1ccccc1)C(=O)NCC(N)=O [Compound 5, H-Tyr-Val-Nle-Gly-His-DNal(2′)-Arg-DTrp-Asp-Arg-Phe-Gly-NH2]
- EC50 [4]: 3.5 nM

Compound: C#CCCCC(=O)NCCCC[C@H](N)C(=O)N[C@@H](Cc1ccc(O)cc1)C(=O)N[C@H](C(=O)N[C@@H](CCCC)C(=O)NCC(=O)N[C@@H](Cc1cnc[nH]1)C(=O)N[C@H](Cc1ccc2ccccc2c1)C(=O)N[C@@H](CCCNC(=N)N)C(=O)N[C@H](Cc1c[nH]c2ccccc12)C(=O)N[C@@H](CC(=O)O)C(=O)N[C@@H](CCCNC(=N)N)C(=O)N[C@@H](Cc1ccccc1)C(=O)NCC(N)=O)C(C)C [Compound 6, H-Lys(hex-5-ynoyl)-Tyr-Val-Nle-Gly-His-DNal(2′)-Arg-DTrp-Asp-Arg-Phe-Gly-NH2]
- Ki ([2]; read-out: Ki MC4R (values determined)): 1.74 nM
- Ki ([3]; read-out: Ki MC5R (values determined)): 1.48 nM

Compound: C#CCCCC(=O)NCCCC[C@H](N)C(=O)N[C@@H](Cc1ccc(O)cc1)C(=O)N[C@H](C(=O)N[C@@H](CCCC)C(=O)NCC(=O)N[C@@H](Cc1c[nH]cn1)C(=O)N[C@H](Cc1ccc2ccccc2c1)C(=O)N[C@@H](CCCNC(=N)N)C(=O)N[C@H](Cc1ccccc1)C(=O)N[C@@H](CC(=O)O)C(=O)N[C@@H](CCCNC(=N)N)C(=O)N[C@@H](Cc1ccccc1)C(=O)NCC(N)=O)C(C)C [Compound 8, H-Lys(hex-5-ynoyl)Tyr-Val-Nle-Gly-His-DNal(2′)-Arg-DPhe-Asp-Arg-Phe-Gly-NH2] (H-K(Butanoyl(4-ethynyl))YV[Nle]GH[d2Nal]R[dF]DRFG-NH2)
- 1R/4R selectivity (values determined) [1]: 1.05

Compound: MC1R-Cy5: MC1R ligand conjugated to Cy5 maleimide dye ({Butanoyl(4-Ph)}-H[dF]RWGK([Mpa-Cy5 maleimide])-NH2)
- tumor cell internalization of probe [5]: fully internalized
- tumor cell internalization of probe ([5]; listed as MC1R-635 probe): detected inside the cells
- time at which probe binds tumor cells in vivo ([5]; after i.v. injection, 5 nmol/kg): ≤ 5 min
